Experimental data reported in PubChem BioAssay (NCI).
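Values below derive from 48-hour exposures of cells grown in 96-well plates, with endpoints linearly interpolated between the two concentrations bracketing the appropriate inhibition level. The concentration for 50% growth inhibition is given as GI50. TGI marks complete inhibition of growth.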

Columns and labels:
Experiment in all cases: growth of human tumour cells (NCI), 48 h
786-0 renal = test system: 786-0 renal
A498 renal = test system: A498 renal
A549 NSCLC = test system: A549 NSCLC
ACHN renal = test system: ACHN renal
BT-549 breast = test system: BT-549 breast
CAKI-1 renal = test system: CAKI-1 renal
CCRF-CEM leukemia = test system: CCRF-CEM leukemia
COLO 205 colon = test system: COLO 205 colon
DU-145 prostate = test system: DU-145 prostate
EKVX NSCLC = test system: EKVX NSCLC
HCC-2998 colon = test system: HCC-2998 colon
HCT-116 colon = test system: HCT-116 colon
HCT-15 colon = test system: HCT-15 colon
HL-60(TB) leukemia = test system: HL-60(TB) leukemia
HOP-62 NSCLC = test system: HOP-62 NSCLC
HOP-92 NSCLC = test system: HOP-92 NSCLC
HS 578T breast = test system: HS 578T breast
HT29 colon = test system: HT29 colon
IGROV1 ovarian = test system: IGROV1 ovarian
K-562 leukemia = test system: K-562 leukemia
KM12 colon = test system: KM12 colon
LOX IMVI melanoma = test system: LOX IMVI melanoma
M14 melanoma = test system: M14 melanoma
MALME-3M melanoma = test system: MALME-3M melanoma
MCF7 breast = test system: MCF7 breast
MDA-MB-231 breast = test system: MDA-MB-231 breast
MDA-MB-435 = test system: MDA-MB-435
MOLT-4 leukemia = test system: MOLT-4 leukemia
NCI-H226 lung = test system: NCI-H226 lung
NCI-H23 lung = test system: NCI-H23 lung
NCI-H460 lung = test system: NCI-H460 lung
NCI-H522 lung = test system: NCI-H522 lung
NCI/ADR-RES ovarian = test system: NCI/ADR-RES ovarian
OVCAR-3 ovarian = test system: OVCAR-3 ovarian
OVCAR-4 ovarian = test system: OVCAR-4 ovarian
OVCAR-5 ovarian = test system: OVCAR-5 ovarian
OVCAR-8 ovarian = test system: OVCAR-8 ovarian
PC-3 prostate = test system: PC-3 prostate
RPMI-8226 leukemia = test system: RPMI-8226 leukemia
RXF 393 renal = test system: RXF 393 renal
SF-268 CNS = test system: SF-268 CNS
SF-295 CNS = test system: SF-295 CNS
SF-539 CNS = test system: SF-539 CNS
SK-MEL-2 melanoma = test system: SK-MEL-2 melanoma
SK-MEL-28 melanoma = test system: SK-MEL-28 melanoma
SK-MEL-5 melanoma = test system: SK-MEL-5 melanoma
SK-OV-3 ovarian = test system: SK-OV-3 ovarian
SN12C renal = test system: SN12C renal
SNB-19 CNS = test system: SNB-19 CNS
SNB-75 CNS = test system: SNB-75 CNS
SR leukemia = test system: SR leukemia
SW-620 colon = test system: SW-620 colon
T-47D breast = test system: T-47D breast
TK-10 renal = test system: TK-10 renal
U251 CNS = test system: U251 CNS
UACC-257 melanoma = test system: UACC-257 melanoma
UACC-62 melanoma = test system: UACC-62 melanoma
UO-31 renal = test system: UO-31 renal

## CC/C(=N/N=C(N)N)c1ccc(NC(=O)Nc2ccc(/C(CC)=N/N=C(N)N)cc2)cc1
786-0 renal
  GI50: 9.02 µM
  TGI: 30.9 µM
A498 renal
  GI50: 36.3 µM
  TGI: > 100 µM
A549 NSCLC
  GI50: 5.1 µM
  TGI: 22.4 µM
ACHN renal
  GI50: 5.78 µM
  TGI: 24.5 µM
BT-549 breast
  GI50: 3.83 µM
  TGI: 21.1 µM
CAKI-1 renal
  GI50: 15.1 µM
  TGI: 39.4 µM
CCRF-CEM leukemia
  GI50: 5.8 µM
  TGI: 28.7 µM
COLO 205 colon
  GI50: 3.25 µM
  TGI: 21.2 µM
DU-145 prostate
  GI50: 5.02 µM
  TGI: 30.5 µM
EKVX NSCLC
  GI50: 6.55 µM
  TGI: 39.6 µM
HCC-2998 colon
  GI50: 7.56 µM
  TGI: 36.3 µM
HCT-116 colon
  GI50: 5.72 µM
  TGI: 25.5 µM
HCT-15 colon
  GI50: 11.9 µM
  TGI: 33.2 µM
HL-60(TB) leukemia
  GI50: 2.85 µM
  TGI: 21.8 µM
HOP-62 NSCLC
  GI50: 10.7 µM
  TGI: 42.6 µM
HOP-92 NSCLC
  GI50: 5.67 µM
  TGI: 35.2 µM
HS 578T breast
  GI50: 22.6 µM
  TGI: > 100 µM
HT29 colon
  GI50: 7.12 µM
  TGI: 28.1 µM
IGROV1 ovarian
  GI50: 3.15 µM
  TGI: 14.8 µM
K-562 leukemia
  GI50: 1.06 µM
  TGI: 7.25 µM
KM12 colon
  GI50: 3.49 µM
  TGI: 20.1 µM
LOX IMVI melanoma
  GI50: 9.41 µM
  TGI: 35 µM
M14 melanoma
  GI50: 10.4 µM
  TGI: 37.4 µM
MALME-3M melanoma
  GI50: 8.24 µM
  TGI: 54.5 µM
MCF7 breast
  GI50: 3.13 µM
  TGI: > 100 µM
MDA-MB-231 breast
  GI50: 6.88 µM
  TGI: 28.1 µM
MDA-MB-435
  GI50: 3.72 µM
  TGI: 16.2 µM
MOLT-4 leukemia
  GI50: 2.07 µM
  TGI: 6.51 µM
NCI-H226 lung
  GI50: 10.8 µM
  TGI: 39.8 µM
NCI-H23 lung
  GI50: 11.5 µM
  TGI: 50.8 µM
NCI-H460 lung
  GI50: 4.1 µM
  TGI: > 100 µM
NCI-H522 lung
  GI50: 1.74 µM
  TGI: 7.03 µM
NCI/ADR-RES ovarian
  GI50: 24.7 µM
  TGI: > 100 µM
OVCAR-3 ovarian
  GI50: 6.19 µM
  TGI: 32 µM
OVCAR-4 ovarian
  GI50: 6.08 µM
  TGI: 44.8 µM
OVCAR-5 ovarian
  GI50: 18.8 µM
  TGI: 44.6 µM
OVCAR-8 ovarian
  GI50: 5.95 µM
  TGI: > 100 µM
PC-3 prostate
  GI50: 6.27 µM
  TGI: 33.7 µM
RPMI-8226 leukemia
  GI50: 1.62 µM
  TGI: 8.85 µM
RXF 393 renal
  GI50: 7.81 µM
  TGI: 33.2 µM
SF-268 CNS
  GI50: 12.8 µM
  TGI: > 100 µM
SF-295 CNS
  GI50: 3.99 µM
  TGI: 19 µM
SF-539 CNS
  GI50: 8.04 µM
  TGI: 35.9 µM
SK-MEL-2 melanoma
  GI50: 4.03 µM
  TGI: 31.2 µM
SK-MEL-28 melanoma
  GI50: 12.6 µM
  TGI: 46.9 µM
SK-MEL-5 melanoma
  GI50: 2.07 µM
  TGI: > 100 µM
SK-OV-3 ovarian
  GI50: 16.5 µM
  TGI: 64.5 µM
SN12C renal
  GI50: 3.16 µM
  TGI: 19.4 µM
SNB-19 CNS
  GI50: 8.55 µM
  TGI: 85 µM
SNB-75 CNS
  GI50: 13.6 µM
  TGI: 42.1 µM
SR leukemia
  GI50: 2.44 µM
  TGI: 14.9 µM
SW-620 colon
  GI50: 8.29 µM
  TGI: 55.6 µM
T-47D breast
  GI50: 5.81 µM
  TGI: 74.1 µM
TK-10 renal
  GI50: 2.31 µM
  TGI: 9.96 µM
U251 CNS
  GI50: 2.64 µM
  TGI: 12.2 µM
UACC-257 melanoma
  GI50: 13.8 µM
  TGI: 42 µM
UACC-62 melanoma
  GI50: 5.13 µM
  TGI: 22.7 µM
UO-31 renal
  GI50: 12.4 µM
  TGI: 27.2 µM
